Results on eleven compounds are retold here after US8232272B2, “Benzimidazoledihydrothiadiazinone derivatives as fructose-1,6-bisphosphatase inhibitors, and pharmaceutical compositions comprising same” (Merck Patent Gesellschaft mit beschränkter Haftung, priority 2007, dated 2012).

Counter-ions that a name gives are not always drawn.

For the first series, the target named is T1, recombinant human liver fructose-1,6-bisphosphatase (Homo sapiens, UniProt P09467).
T1 sequence (P09467 1-338): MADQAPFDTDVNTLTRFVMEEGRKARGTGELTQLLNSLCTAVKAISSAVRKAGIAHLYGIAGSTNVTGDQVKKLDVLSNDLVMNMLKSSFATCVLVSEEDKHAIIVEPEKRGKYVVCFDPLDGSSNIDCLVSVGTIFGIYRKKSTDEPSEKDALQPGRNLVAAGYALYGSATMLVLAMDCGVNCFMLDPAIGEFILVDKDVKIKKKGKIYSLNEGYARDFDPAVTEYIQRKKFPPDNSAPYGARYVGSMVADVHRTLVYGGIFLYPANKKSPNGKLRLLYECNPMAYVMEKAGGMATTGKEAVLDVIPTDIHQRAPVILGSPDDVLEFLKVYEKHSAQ
Kind of series: Inhibition of recombinant human liver fructose-1,6-bisphosphatase (spectrophotometric coupled enzyme assay). Type of series: biochemical. To be noted: 0.167 mM fructose-1,6-bisphosphate, pH 7.5, room temperature, 30 minutes at 340 nm, read-out: Inhibition of human F-1,6-BPase IC50.
From the text: […]
Turning to `CC1SC(=O)N(C(C)C)N=C1c1ccc2c(c1)nc(-c1cccc(F)c1)n2C` (stereo not shown) [Example 12-3, 5-[2-(3-fluorophenyl)-1-methyl-1H-benzimidazol-5-yl]-3-isopropyl-6-methyl-3,6-dihydro-2H-1,3,4-thiadiazin-2-one], the IC50 stood at 7 µM. As for `CCCN1N=C(c2ccc3c(c2)nc(-c2cccc(F)c2)n3C)C(C)SC1=O` (stereo not shown) [Example 12-6, 5-[2-(3-fluorophenyl)-1-methyl-1H-benzimidazol-5-yl]-6-methyl-3-propyl-3,6-dihydro-2H-1,3,4-thiadiazin-2-one], the IC50 came out at 8.5 µM.

Take `COc1cccc(-c2nc3cc(C4=NN(C)C(=O)SC4)ccc3n2C2CCCCCC2)c1` [Example 12-7, 5-[1-cycloheptyl-2-(3-methoxyphenyl)-1H-benzimidazol-5-yl]-3-methyl-3,6-dihydro-2H-1,3,4-thiadiazin-2-one]: the IC50 was found to be 36 µM. Still for that read-out and setting: then `COc1cc(-c2nc3cc(C4=NNC(=O)SC4C)ccc3[nH]2)ccc1[S+](C)[O-]` (stereo not shown) [Example 26-3, 5-{2-[3-methoxy-4-(methylsulfinyl)phenyl]-1H-benzimidazol-5-yl}-6-methyl-3,6-dihydro-2H-1,3,4-thiadiazin-2-one hydrochloride], with 6.4 µM.

For the compound `CC1SC(=O)NN=C1c1ccc2[nH]c(-c3ccc(-n4ccnc4)cc3)nc2c1` (stereo not shown) [Example 26-4, 5-{2-[4-(1H-imidazol-1-yl)phenyl]-1H-benzimidazol-5-yl}-6-methyl-3,6-dihydro-2H-1,3,4-thiadiazin-2-one dihydrochloride], the IC50 is 3.6 µM.

In the next series the test system is rat hepatocyte primary cultures (hepatic glucose production). Kind of series: Hepatic production of glucose in rat hepatocyte primary cultures. In kind it is cell-based, Wistar rat. The settings on record: rat hepatocytes incubated 3 hours with dihydroxyacetone (DHA) as substrate, control = DHA without compounds. An excerpt:
Effects of the Various Compounds Described Previously on the Hepatic Production of Glucose in Rat Hepatocyte Primary Cultures
The hepatocytes are isolated from Wistar rat liver via the collagenase perfusion technique described by Seglen (Methods Cell Biol. 1975; 13, 29-83). The cell viability is confirmed by the exclusion test with trypan blue. The isolated hepatocytes are suspended in a William's medium supplemented with foetal calf serum (10%) in 6-well plates. After a 4-hour attachment period, the medium is aspirated to remove the cell debris and replaced with a serum-free and glucose-free MEM medium. The hepatocytes are then cultured for 16 to 18 hours (37° C.; 5% CO2). At the end of culturing and after having aspirated the medium, the glucose production is measured by incubating the hepatocytes for 3 hours in a Krebs buffer supplemented with dihydroxyacetone (DHA) as neoglucogenesis substrate, in the presence or absence of the various compounds described previously. The amount of glucose in the medium is measured in each culture well via a test with glucose oxidase (GOD). The cell protein content is evaluated via the Lowry method. The results are expressed in nanomoles of glucose produced per mg of cell protein. The activity of the test compounds is expressed as a percentage of the control (production of glucose in the presence of DHA but without compounds).
Inhibition of Hepatic Glucose Production
Regarding `COc1cccc(-c2nc3cc(C4=NNC(=O)SC4C)ccc3[nH]2)c1` (stereo not shown) [Example 26, 5-[2-(3-methoxyphenyl)-1H-benzimidazol-5-yl]-6-methyl-3,6-dihydro-2H-1,3,4-thiadiazin-2-one], the “Hepatic glucose production. % of the control at 30 μM” value was 38 % of the control. On the same count and under the same terms, then `COc1cc(-c2nc3cc(C4=NNC(=O)SC4C)ccc3[nH]2)ccc1[S+](C)[O-]` (stereo not shown) [Example 26-3, 5-{2-[3-methoxy-4-(methylsulfinyl)phenyl]-1H-benzimidazol-5-yl}-6-methyl-3,6-dihydro-2H-1,3,4-thiadiazin-2-one hydrochloride], with 34 % of the control. Consider `CC1SC(=O)NN=C1c1ccc2[nH]c(-c3ccc(-n4ccnc4)cc3)nc2c1` (stereo not shown) [Example 26-4, 5-{2-[4-(1H-imidazol-1-yl)phenyl]-1H-benzimidazol-5-yl}-6-methyl-3,6-dihydro-2H-1,3,4-thiadiazin-2-one dihydrochloride], for which the “Hepatic glucose production. % of the control at 30 μM” value is given as 28 % of the control.

Test system in the next series: not given
Assay: not given
Conditions: not given
Turning to `COc1cccc(-c2nc3cc(C4=NNC(=O)SC4C)ccc3n2CC(C)C)c1` (stereo not shown), the melting point was in the range of 100 to 105 °C.

`COc1cccc(-c2nc3cc(C4=NNC(=O)SC4)ccc3n2CC(C)C)c1` [Example 11, 5-[1-isobutyl-2-(3-methoxyphenyl)-1H-benzimidazol-5-yl]-3,6-dihydro-2H-1,3,4-thiadiazin-2-one]: the melting point fell in the range of 207 to 209 °C. Still for that read-out and setting: then `CCn1c(-c2cccc(F)c2)nc2cc(C3=NNC(=O)SC3)ccc21` [Example 11-4, 5-[1-ethyl-2-(3-fluorophenyl)-1H-benzimidazol-5-yl]-3,6-dihydro-2H-1,3,4-thiadiazin-2-one], with 214 to 216 °C; and `CCCC1SC(=O)NN=C1c1ccc2c(c1)nc(-c1cccc(C(F)(F)F)c1)n2C` (stereo not shown) [Example 11-5, 5-{1-methyl-2-[3-(trifluoromethyl)phenyl]-1H-benzimidazol-5-yl}-6-propyl-3,6-dihydro-2H-1,3,4-thiadiazin-2-one], with 190 to 192 °C; and `CCn1c(-c2cccc(OC)c2)nc2cc(C3=NNC(=O)SC3)ccc21` [Example 11-6, 5-[1-ethyl-2-(3-methoxyphenyl)-1H-benzimidazol-5-yl]-3,6-dihydro-2H-1,3,4-thiadiazin-2-one], with 221 to 223 °C.
